Measured values published in patent publication US5674881A, “Quaternary ammonium salts of aromatic amine compounds, their preparation and pharmaceutical compositions in which they are present” (Elf Sanofi, priority 1992, dated 1997).
Each block holds one compound with its values, some of them ahead of it.

Key:
[1] = test system: substance P receptors, IM9 cells; details: substance P binding, Gitter et al. 1991; cited from earlier work
[2] = biological target: substance P receptors (rat receptor); details: 3H-SP binding on rat cortical membranes, Snider et al. 1991; cited from earlier work
[3] = biological target: substance P receptors (bovine receptor); details: 3H-SP binding on bovine caudal membrane, Snider et al. 1991; cited from earlier work
[4] = test system: substance P receptors, U373 MG cells; details: substance P binding, Gitter et al. 1991; cited from earlier work
NK1 receptor = details: agonist; D. Regoli 1988 and 1989; cited from earlier work
[5] = biological target: T1, substance P receptors on rat cortex (Rattus norvegicus, UniProt P14600); assay: antagonism of the binding of substance P to its receptor, rat cortex
T1 construct: in tests performed on rat cortex; from tissue; host or cells: rat cortex
Experimental: (§1) Thus the compounds according to the invention antagonize the binding of substance P to its receptor with a Ki of between 0.1 and 800 nM in tests performed on rat cortex and with a Ki of between 0.01 and 30 nM in tests performed on the lymphoblastic cell line IM9.

neurokinin receptors = assay: affinity for the neurokinin receptors; format: binding
substance P = substance P antagonism
[6] = biological target: T2, substance P receptors on human cells of the IM9 line (Homo sapiens, UniProt P25103); assay: antagonism of the binding of substance P to its receptor, lymphoblastic cell line IM9
T2 construct: in tests performed on the lymphoblastic cell line IM9; endogenous in cells; host or cells: IM9 (human lymphoblastic cell line)
Experimental: as §1

T1 sequence (P14600 whole entry): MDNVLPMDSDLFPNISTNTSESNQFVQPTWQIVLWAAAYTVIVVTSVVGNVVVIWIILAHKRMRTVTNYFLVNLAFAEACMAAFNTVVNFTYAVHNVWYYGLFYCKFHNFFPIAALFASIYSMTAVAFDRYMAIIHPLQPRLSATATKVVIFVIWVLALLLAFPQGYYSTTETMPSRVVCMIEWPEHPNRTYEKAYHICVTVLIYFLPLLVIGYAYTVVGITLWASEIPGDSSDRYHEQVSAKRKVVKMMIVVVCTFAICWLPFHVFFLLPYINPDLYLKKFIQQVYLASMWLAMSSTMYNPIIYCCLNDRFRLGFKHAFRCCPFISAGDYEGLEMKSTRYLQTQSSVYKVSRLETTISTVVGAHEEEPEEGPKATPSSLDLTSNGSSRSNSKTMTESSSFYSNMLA
T2 sequence (P25103 whole entry): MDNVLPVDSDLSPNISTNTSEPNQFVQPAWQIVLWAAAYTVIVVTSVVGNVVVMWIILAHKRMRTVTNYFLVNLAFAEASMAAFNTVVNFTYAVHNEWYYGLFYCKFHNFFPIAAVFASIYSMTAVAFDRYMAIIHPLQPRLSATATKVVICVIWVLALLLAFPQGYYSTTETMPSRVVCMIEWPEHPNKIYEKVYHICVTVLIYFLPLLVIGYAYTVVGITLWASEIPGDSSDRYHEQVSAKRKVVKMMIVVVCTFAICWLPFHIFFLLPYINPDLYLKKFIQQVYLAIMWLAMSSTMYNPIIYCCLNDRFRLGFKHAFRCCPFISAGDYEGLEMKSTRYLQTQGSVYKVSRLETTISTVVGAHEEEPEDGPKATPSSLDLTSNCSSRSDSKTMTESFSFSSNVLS

Compound: COc1ccccc1CN[C@H]1C2CCN(CC2)[C@H]1C(c1ccccc1)c1ccccc1 [CP 96,345]
Ki [1]: 0.4 nM
Ki [2]: 240 nM
Ki [3]: 3 nM
Ki [4]: 0.4 nM

Compound: [Sar^9, Met-(O2)^11 ]-SP
selectivity for the NK1 receptor (NK1 receptor): selective

Ki [5]: 0.3 to 0.6 nM
affinity for the neurokinin receptors (neurokinin receptors): very high affinity
Ki [6]: 0.3 to 0.6 nM
Compound: CC(C)Oc1cccc(CC(=O)N(C)CC(CCN2CCC(c3ccccc3)CC2)c2ccc(Cl)c(Cl)c2)c1 (stereo not drawn) [(I'b), N-Methyl-N-[4-(4-phenylpiperidin-1-yl)-2-(3,4-dichlorophenyl)butyl]-3-isopropoxyphenylacetamide]
substance P antagonism (substance P): powerful substance P antagonists
